Test results: ChEMBL document CHEMBL4765232 (J Med Chem, 2016); call rule not given here

What was measured:
[1] = Drug concentration in tumor of CB17 SCID mouse xenografted with human KARPAS-422 cells at 160 mg/kg, po BID administered for 17 days and measured up to 12 hrs post last dose by LC-MS analysis; format: ADME, organism-based, Neoplasm; conditions: time 17 day, read-out: Ct
[2] = Protein binding in mouse plasma assessed as bound fraction; format: ADME, cell-free
[3] = AUC (0 to infinity) in Beagle dog at 5 mg/kg, po; format: ADME, organism-based, Canis lupus familiaris; design: route oral, time infinity, dose 5 mg/kg; conditions: in vivo
[4] = Drug concentration in plasma of CB17 SCID mouse xenografted with human KARPAS-422 cells at 160 mg/kg, po BID administered for 17 days and measured up to 12 hrs post last dose by LC-MS analysis; format: ADME, organism-based; conditions: time 17 day
[5] = Unbound AUC in Balb/c mouse at 100 mg/kg, po formulated in 0.5 % methyl cellulose maintained at pH 3 to 4; format: ADME, organism-based; conditions: in vivo, pH 3, 100 mg/kg
[6] = Clearance in Balb/c mouse at 1 mg/kg, iv formulated with 5:60:35 DMA/PEG400/20% SBECD relative to liver blood flow; format: ADME, organism-based; conditions: in vivo
[7] = Tmax in Sprague-Dawley rat at 25 mg/kg, po; format: ADME, organism-based; conditions: in vivo
[8] = Volume of distribution at steady in Balb/c mouse at 1 mg/kg, iv formulated with 5:60:35 DMA/PEG400/20% SBECD; format: ADME, organism-based; conditions: in vivo, read-out: Vdss
[9] = Volume of distribution at steady state in Beagle dog at 1 mg/kg, iv; format: ADME, organism-based, Canis lupus familiaris; conditions: in vivo, read-out: Vdss
[10] = Intrinsic clearance in rat liver microsomes assessed per mg protein; format: ADME, Microsome
[11] = Half life in Beagle dog plasma at 1 mg/kg, iv; format: ADME, organism-based, Canis lupus familiaris
[12] = Unbound Cmax in Balb/c mouse at 100 mg/kg, po formulated in 0.5 % methyl cellulose maintained at pH 3 to 4; format: ADME, organism-based; conditions: in vivo, pH 3, 100 mg/kg
[13] = Unbound AUC in Beagle dog at 5 mg/kg, po; format: ADME, organism-based, Canis lupus familiaris; conditions: in vivo
CYP2C8 = target: T1, CYP2C8 (Homo sapiens, UniProt P10632); assay: Inhibition of CYP2C8 (unknown origin) at 10 uM relative to control; format: ADME
T1 sequence (P10632 whole entry): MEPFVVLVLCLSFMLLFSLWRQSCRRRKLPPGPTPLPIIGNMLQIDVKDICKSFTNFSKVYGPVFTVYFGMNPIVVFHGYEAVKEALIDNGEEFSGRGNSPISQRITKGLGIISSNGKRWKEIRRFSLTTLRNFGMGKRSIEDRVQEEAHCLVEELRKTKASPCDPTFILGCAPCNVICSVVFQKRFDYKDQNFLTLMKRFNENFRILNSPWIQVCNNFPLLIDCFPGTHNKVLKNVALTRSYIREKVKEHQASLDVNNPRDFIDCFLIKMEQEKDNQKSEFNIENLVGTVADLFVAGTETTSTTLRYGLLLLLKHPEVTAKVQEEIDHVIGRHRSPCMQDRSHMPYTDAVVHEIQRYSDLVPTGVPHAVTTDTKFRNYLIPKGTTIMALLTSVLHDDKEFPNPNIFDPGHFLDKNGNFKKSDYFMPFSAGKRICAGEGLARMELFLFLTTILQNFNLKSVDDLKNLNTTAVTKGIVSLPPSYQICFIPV

Cytochrome P450 2C8 = target: T2, Cytochrome P450 2C8 (Homo sapiens, UniProt P10632); assay: Time dependent inhibition of CYP2C8 (unknown origin); format: ADME
T2 sequence (P10632 whole entry): T1 sequence (P10632 whole entry)

[14] = Unbound clearance in Beagle dog at 1 mg/kg, iv; format: ADME, organism-based, Canis lupus familiaris; conditions: in vivo
[15] = Protein binding in rat plasma assessed as bound fraction; format: ADME, cell-free; conditions: read-out: PPB (converted)
[16] = target: T3, Histone-lysine N-methyltransferase EZH1 (Homo sapiens, UniProt Q92800)
T3 sequence (Q92800 whole entry): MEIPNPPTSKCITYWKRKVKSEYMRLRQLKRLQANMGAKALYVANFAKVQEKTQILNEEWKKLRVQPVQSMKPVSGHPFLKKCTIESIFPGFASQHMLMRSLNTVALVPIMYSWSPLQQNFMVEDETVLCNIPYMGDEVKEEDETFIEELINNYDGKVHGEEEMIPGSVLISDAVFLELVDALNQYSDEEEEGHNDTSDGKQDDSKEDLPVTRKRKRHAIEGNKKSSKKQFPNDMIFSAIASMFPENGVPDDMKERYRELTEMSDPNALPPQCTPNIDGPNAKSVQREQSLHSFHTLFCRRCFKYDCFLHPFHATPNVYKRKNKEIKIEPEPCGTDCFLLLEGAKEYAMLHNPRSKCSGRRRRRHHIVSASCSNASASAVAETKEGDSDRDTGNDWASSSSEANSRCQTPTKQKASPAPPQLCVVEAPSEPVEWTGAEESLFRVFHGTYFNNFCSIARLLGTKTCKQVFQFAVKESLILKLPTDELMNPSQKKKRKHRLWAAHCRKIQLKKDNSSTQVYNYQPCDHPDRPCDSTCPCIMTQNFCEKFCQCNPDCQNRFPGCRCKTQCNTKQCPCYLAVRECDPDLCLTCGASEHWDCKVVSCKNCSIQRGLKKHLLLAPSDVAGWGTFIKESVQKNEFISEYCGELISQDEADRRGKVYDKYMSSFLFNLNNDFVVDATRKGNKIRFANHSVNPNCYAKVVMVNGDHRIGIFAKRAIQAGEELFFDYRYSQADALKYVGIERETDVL
Description: Inhibition of EZH1 (unknown origin)

[17] = Cmax in Balb/c mouse at 100 mg/kg, po formulated in 0.5 % methyl cellulose maintained at pH 3 to 4; format: ADME, organism-based; design: route oral, dose 100 mg/kg; conditions: in vivo, pH 3, 100 mg/kg
[18] = Unbound clearance in Sprague-Dawley rat at 1 mg/kg, iv; format: ADME, organism-based; conditions: in vivo
[19] = Clearance in Sprague-Dawley rat at 1 mg/kg, iv relative to liver blood flow; format: ADME, organism-based; conditions: in vivo
[20] = Protein binding in dog plasma assessed as bound fraction; format: ADME, cell-free, Canis lupus familiaris; conditions: read-out: PPB (converted)
Cytochrome P450 3A4 = Cytochrome P450 3A4 (Homo sapiens, UniProt P08684); assay: Time dependent inhibition of CYP3A4 (unknown origin); format: ADME
[21] = Cmax in Sprague-Dawley rat at 25 mg/kg, po; format: ADME, organism-based; design: route oral, dose 25 mg/kg; conditions: in vivo
[22] = Intrinsic clearance in dog liver microsomes assessed per mg protein; format: ADME, Canis lupus familiaris, Microsome

Chain of Cytochrome P450 3A4 (P08684 whole entry): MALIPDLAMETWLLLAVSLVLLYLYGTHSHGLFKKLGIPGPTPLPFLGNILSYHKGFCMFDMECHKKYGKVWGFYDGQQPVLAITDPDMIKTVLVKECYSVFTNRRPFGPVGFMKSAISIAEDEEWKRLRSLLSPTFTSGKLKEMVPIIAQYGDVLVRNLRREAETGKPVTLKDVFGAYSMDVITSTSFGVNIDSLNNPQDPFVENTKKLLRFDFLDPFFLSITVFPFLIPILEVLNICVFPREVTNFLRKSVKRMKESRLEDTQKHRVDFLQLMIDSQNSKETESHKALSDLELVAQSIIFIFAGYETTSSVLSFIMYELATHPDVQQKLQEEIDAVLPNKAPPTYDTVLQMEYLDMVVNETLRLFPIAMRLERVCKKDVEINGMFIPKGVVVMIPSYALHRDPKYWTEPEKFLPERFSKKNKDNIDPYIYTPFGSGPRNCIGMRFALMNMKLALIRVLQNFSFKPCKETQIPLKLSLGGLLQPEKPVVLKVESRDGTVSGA

## COc1cc(C)[nH]c(=O)c1CNC(=O)c1c(C)n([C@H](C)C2CCN(CC(F)(F)F)CC2)c2ccccc12 [CPI-1205]
[1]
  concentration at 408 h: 5290 ng/g
[2]
  PPB: 97.9%
[3]
  AUC(0-inf): 3.19 µM·h
[4]
  concentration at 408 h: 11400 ng/mL
[5]
  fAUC: 1.87 µM·h
[6]
  CL: 40%
[7]
  Tmax: 0.5 h
[8]
  Vd: 1.36 L/kg
[9]
  Vd: 1.6 L/kg
[10]
  CLH: 99.6 µL/min
[11]
  half-life: 1.84 h
[12]
  fCmax: 1.41 µM
[13]
  fAUC: 0.309 µM·h
CYP2C8
  inhibition at 10 µM: 41%
Cytochrome P450 2C8
  TDI: Not Active
[14]
  CL free: 242 mL/min/kg
[15]
  fraction unbound: 0.101
[16]
  IC50: 52 nM
[17]
  Cmax: 67.4 µM
[18]
  CL free: 527 mL/min/kg
[19]
  CL: 97%
[20]
  fraction unbound: 0.097
Cytochrome P450 3A4
  TDI: Not Active
[21]
  Cmax: 5.88 µM
[22]
  CLH: 73.9 µL/min
